Test results taken from patent publication US20150307520A1, “NOVEL HETEROARYL AND HETEROCYCLE COMPOUNDS, COMPOSITIONS AND METHODS THEREOF” (HUTCHISON MEDIPHARMA LIMITED, priority 2012, published 2015).

Experiments:
Format in all cases: biochemical
p110δ/p85α = p110δ/p85α (Homo sapiens, UniProt O00329); assay: Transcreener KINASE Assay, kinase inhibition of p110δ/p85α; details: for PI3Kδ IH % @ 1 uM: 1 uM test compound; for IC50: read-out: PI3Kδ IC50
Outline: (§1)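 Kinase reactions run 80 min at room temperature, pH buffered with 50 mM HEPES plus 3 mM MgCl2 and 0.03% CHAPS; the PIP2/ATP mix added was 30 uM/10 uM. Generated ADP is then read by FP immunoassay.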

p110β/p85α = p110β/p85α (Homo sapiens, UniProt P42338); assay: Transcreener KINASE Assay, kinase inhibition of p110β/p85α; details: for PI3Kβ IH % @ 1 uM: 1 uM test compound; for IC50: read-out: PI3Kβ IC50
Chain of p110β/p85α (P42338 whole entry): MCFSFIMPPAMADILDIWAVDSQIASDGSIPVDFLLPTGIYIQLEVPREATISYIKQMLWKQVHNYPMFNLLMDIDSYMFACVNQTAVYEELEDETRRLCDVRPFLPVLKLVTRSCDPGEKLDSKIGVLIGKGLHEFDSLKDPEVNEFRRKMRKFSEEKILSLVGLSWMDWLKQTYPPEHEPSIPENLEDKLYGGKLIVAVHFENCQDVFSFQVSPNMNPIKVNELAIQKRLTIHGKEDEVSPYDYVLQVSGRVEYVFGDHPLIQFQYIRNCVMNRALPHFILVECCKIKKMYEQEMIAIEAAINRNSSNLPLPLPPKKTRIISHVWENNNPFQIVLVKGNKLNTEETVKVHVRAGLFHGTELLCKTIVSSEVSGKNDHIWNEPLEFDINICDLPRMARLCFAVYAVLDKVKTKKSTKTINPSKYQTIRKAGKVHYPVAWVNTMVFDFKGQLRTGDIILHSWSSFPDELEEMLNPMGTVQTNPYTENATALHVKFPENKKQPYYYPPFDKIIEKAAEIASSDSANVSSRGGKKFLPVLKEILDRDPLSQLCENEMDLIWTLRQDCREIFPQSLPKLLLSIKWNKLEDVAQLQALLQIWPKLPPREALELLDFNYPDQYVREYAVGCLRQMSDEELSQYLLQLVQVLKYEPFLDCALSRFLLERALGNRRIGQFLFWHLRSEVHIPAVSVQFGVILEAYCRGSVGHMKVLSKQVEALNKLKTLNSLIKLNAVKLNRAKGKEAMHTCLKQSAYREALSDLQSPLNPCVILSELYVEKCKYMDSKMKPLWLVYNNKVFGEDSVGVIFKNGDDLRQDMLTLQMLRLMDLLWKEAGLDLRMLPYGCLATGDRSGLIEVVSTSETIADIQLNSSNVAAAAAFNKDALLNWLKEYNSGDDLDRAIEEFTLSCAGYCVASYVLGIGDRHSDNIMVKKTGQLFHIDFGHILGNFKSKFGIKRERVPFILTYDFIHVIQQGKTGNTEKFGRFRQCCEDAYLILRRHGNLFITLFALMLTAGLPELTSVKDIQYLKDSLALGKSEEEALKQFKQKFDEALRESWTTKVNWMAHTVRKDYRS
Chain of p110β/p85α (P27986 2-724 partner): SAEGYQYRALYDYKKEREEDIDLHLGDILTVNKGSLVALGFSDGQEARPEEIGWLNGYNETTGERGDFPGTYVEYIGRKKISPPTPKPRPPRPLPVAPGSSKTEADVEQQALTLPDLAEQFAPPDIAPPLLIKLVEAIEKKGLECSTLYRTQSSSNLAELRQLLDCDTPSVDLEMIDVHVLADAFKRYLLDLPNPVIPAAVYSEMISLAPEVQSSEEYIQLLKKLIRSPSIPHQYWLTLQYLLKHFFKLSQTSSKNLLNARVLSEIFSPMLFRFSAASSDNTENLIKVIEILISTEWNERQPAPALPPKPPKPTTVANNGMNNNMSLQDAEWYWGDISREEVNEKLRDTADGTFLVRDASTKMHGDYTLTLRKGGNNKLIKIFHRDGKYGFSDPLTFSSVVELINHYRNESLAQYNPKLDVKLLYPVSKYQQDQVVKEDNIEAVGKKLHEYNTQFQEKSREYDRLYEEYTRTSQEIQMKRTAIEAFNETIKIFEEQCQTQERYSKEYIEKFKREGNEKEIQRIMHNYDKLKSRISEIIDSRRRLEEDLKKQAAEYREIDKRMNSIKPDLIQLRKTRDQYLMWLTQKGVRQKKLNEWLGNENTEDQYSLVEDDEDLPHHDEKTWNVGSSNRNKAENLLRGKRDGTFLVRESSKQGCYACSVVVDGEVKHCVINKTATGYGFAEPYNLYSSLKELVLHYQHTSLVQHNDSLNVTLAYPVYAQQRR
Outline: as §1

p110γ = p110γ (Homo sapiens, UniProt P48736); assay: Transcreener KINASE Assay, kinase inhibition of p110γ; details: for PI3Kγ IH % @ 1 uM: 1 uM test compound; for IC50: read-out: PI3Kγ IC50
Chain of p110γ (P48736 whole entry, canonical isoform): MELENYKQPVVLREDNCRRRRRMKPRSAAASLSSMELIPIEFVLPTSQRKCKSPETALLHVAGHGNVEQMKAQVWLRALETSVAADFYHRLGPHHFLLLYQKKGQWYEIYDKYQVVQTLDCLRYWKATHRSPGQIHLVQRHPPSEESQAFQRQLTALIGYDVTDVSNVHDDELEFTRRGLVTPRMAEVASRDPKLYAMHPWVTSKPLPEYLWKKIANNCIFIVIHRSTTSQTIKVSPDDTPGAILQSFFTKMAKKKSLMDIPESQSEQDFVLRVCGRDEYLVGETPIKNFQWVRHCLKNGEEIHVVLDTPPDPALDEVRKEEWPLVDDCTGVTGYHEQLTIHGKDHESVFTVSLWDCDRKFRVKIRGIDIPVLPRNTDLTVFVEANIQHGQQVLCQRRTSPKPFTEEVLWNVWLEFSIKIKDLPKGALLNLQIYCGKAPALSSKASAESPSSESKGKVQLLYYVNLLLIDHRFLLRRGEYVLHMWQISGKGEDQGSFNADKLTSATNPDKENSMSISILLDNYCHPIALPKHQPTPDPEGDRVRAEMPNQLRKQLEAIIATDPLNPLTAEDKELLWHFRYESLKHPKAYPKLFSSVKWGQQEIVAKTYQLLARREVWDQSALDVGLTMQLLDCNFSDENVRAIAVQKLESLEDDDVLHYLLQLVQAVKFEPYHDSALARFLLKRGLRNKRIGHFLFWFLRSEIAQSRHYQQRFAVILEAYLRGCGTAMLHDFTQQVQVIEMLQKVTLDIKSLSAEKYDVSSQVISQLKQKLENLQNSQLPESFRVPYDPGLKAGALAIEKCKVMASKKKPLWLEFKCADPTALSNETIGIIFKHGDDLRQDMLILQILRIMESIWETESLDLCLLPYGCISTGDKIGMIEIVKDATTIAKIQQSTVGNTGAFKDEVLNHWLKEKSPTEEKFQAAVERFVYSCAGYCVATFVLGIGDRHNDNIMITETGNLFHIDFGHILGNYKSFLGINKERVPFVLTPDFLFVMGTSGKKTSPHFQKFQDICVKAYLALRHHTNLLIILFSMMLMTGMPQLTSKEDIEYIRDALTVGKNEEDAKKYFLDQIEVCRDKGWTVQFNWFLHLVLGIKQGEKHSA
Outline: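 Recombinant PI3K isoforms (p85α complexes or p110γ alone) reacted 80 min at room temperature, then ADP detection mix added for 60 min. ADP formation read by far-red competitive fluorescence polarization immunoassay; IC50 by curve fitting.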

Chain of p110δ/p85α (O00329 whole entry): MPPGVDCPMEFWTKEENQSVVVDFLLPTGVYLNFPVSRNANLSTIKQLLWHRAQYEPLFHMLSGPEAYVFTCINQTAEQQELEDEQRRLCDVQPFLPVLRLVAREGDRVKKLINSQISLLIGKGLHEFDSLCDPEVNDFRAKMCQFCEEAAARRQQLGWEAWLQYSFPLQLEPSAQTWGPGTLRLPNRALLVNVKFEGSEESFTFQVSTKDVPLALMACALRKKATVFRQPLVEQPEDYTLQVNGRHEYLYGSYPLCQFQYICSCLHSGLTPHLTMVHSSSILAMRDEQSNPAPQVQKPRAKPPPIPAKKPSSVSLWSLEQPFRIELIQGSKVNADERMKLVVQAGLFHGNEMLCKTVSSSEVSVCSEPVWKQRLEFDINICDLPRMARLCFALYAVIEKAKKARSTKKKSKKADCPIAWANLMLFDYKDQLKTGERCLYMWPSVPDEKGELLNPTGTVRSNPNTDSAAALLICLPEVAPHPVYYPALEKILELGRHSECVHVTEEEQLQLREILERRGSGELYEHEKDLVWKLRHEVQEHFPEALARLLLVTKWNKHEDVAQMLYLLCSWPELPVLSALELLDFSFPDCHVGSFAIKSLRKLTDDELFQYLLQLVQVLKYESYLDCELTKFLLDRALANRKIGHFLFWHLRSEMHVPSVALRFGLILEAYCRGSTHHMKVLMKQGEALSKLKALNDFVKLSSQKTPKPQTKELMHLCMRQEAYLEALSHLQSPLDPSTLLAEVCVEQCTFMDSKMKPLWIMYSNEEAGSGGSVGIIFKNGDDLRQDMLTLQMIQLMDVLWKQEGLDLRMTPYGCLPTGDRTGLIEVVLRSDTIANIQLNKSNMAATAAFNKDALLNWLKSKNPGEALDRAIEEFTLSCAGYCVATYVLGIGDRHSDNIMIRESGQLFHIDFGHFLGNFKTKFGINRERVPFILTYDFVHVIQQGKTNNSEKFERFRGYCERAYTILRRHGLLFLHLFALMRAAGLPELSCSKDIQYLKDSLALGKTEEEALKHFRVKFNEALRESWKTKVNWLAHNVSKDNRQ
Chain of p110δ/p85α (P27986 whole entry partner): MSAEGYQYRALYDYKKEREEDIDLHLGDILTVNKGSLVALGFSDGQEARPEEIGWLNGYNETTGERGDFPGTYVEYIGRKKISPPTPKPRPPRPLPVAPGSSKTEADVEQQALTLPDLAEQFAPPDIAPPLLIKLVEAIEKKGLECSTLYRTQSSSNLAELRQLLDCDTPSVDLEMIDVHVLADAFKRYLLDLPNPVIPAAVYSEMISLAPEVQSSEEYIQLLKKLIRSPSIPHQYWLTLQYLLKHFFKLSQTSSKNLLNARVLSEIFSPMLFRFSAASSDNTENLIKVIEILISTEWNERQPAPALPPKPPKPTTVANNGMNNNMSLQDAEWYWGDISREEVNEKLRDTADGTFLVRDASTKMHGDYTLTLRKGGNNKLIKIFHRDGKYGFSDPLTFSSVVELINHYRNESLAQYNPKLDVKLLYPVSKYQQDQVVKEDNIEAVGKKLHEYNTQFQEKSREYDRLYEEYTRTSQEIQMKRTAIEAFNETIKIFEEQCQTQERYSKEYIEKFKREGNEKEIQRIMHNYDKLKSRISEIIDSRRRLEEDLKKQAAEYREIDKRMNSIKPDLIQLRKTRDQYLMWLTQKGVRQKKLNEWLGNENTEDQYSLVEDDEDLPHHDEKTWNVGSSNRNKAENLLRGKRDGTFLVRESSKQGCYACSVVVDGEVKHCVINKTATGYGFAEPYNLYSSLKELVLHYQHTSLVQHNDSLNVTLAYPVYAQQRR

Structure (SMILES) | PI3Kδ IH % @ 1 uM (p110δ/p85α) [%] | IC50 (p110δ/p85α) [nM] | PI3Kβ IH % @ 1 uM (p110β/p85α) [%] | IC50 (p110β/p85α) [nM] | PI3Kγ IH % @ 1 uM (p110γ) [%] | IC50 (p110γ) [nM]
N#Cc1cnc(N)nc1N1CCC[C@H]1c1nn2ccc(F)c2c(=O)n1-c1ccccc1 [Compound 230] | >100 | 3 | 75.2 | 280 | 87.3 | 7
N#Cc1cnc(N)nc1N1CCC[C@H]1c1nn2ccc(Cl)c2c(=O)n1-c1ccc(F)cc1 [Compound 231] | 98.1 | 9 | 80.5 | 197 | 96.8 | 4
N#Cc1cnc(N)nc1N1CCC[C@H]1c1nn2ccc(Cl)c2c(=O)n1-c1cccc(F)c1 [Compound 232] | >100 | 6 | 63.4 |  | >100 | 14
C[C@H]1CCN(c2ncnc3[nH]cc(C#N)c23)C1c1nn2ccc(Cl)c2c(=O)n1-c1ccccc1 (stereo partly drawn) [Compound 233] | >100 |  | >100 |  | >100 | 
C[C@H]1CCN(c2ncnc3[nH]cnc23)C1c1nn2ccc(Cl)c2c(=O)n1-c1ccccc1 (stereo partly drawn) [Compound 234] | >100 |  | 83.4 |  | >100 | 
C[C@H]1CCN(c2nc(N)ncc2C#N)C1c1nn2ccc(Cl)c2c(=O)n1-c1ccccc1 (stereo partly drawn) [Compound 236] | >100 |  | 79.8 |  | 94.9 | 
C[C@H]1CN(c2ncnc3[nH]cnc23)C1c1nn2ccc(Cl)c2c(=O)n1-c1ccccc1 (stereo partly drawn) [Compound 237] | >100 | 14 | 37.6 |  | 86.3 | 35
C#Cc1cnc(N)nc1N1CCC[C@H]1c1nn2ccc(Cl)c2c(=O)n1-c1ccccc1 [Compound 238] | >100 | 14 | 33.8 |  | >100 | 18
Cc1nc(N2CCC[C@H]2c2nn3ccc(F)c3c(=O)n2-c2ccccc2)c2nc[nH]c2n1 [Compound 239] | 98.7 | 18 | 59.8 |  | >100 | 75
Nc1ncc([N+](=O)[O-])c(N2CCC[C@H]2c2nn3ccc(Cl)c3c(=O)n2-c2ccccc2)n1 [Compound 240] | 98.1 | 34 | 45.0 |  | >100 | 36
Nc1nc2c(c(N3CC[C@H]3c3nn4ccc(Cl)c4c(=O)n3-c3ccccc3)n1)C(=O)CCN2 [Compound 241] | 95.3 | 32 | 31.9 |  | 98.7 | 14
Nc1nc2c(c(N3CCC[C@H]3c3nn4ccc(Cl)c4c(=O)n3-c3ccccc3)n1)C(=O)CCN2 [Compound 242] | 96.8 | 10 | 46.5 |  | 98.9 | 19
C[C@H]1CN(c2ncnc3[nH]cc(C#N)c23)[C@@H]1c1nn2ccc(F)c2c(=O)n1-c1ccccc1 [Compound 244] | 99.8 | 4 | 58.4 |  | 92.7 | 30
Nc1nc2c(c(N3CCC[C@H]3c3nn4ccc(Br)c4c(=O)n3-c3ccccc3)n1)CCC2 [Compound 245] | 78.0 | 341 | 38.4 |  | 77.5 | 337
Nc1nc2c(c(N3CCC[C@H]3c3nn4ccc(Cl)c4c(=O)n3-c3ccccc3)n1)CCC2 [Compound 246] | 84.6 | 562 | 2.5 |  | 80.8 | 696
Nc1nc2c(c(N3CC[C@H]3c3nn4ccc(Cl)c4c(=O)n3-c3ccccc3)n1)CCC2 [Compound 247] | 53.0 |  | 4.8 |  | 73.0 | 
Nc1nc2c(c(N3CC[C@H]3c3nn4ccc(F)c4c(=O)n3-c3ccccc3)n1)C(=O)CCN2 [Compound 248] | 96.2 | 9 | −10.7 |  | 98.0 | 9
Nc1nc2c(c(N3CCC[C@H]3c3nn4ccc(F)c4c(=O)n3-c3ccccc3)n1)C(=O)CCN2 [Compound 249] | 99.3 | 8 | 24.8 |  | 98.0 | 29
Nc1nc2c(c(N3C[C@@H](F)C[C@H]3c3nn4ccc(F)c4c(=O)n3-c3ccccc3)n1)C(=O)CCN2 [Compound 250] | 99.1 | 22 | 33.4 |  | 95.8 | 45
CN(C)CCn1c([C@@H]2CCCN2c2ncnc3[nH]cnc23)nn2ccc(Cl)c2c1=O [Compound 251] | 88.3 | 102 | 50.4 |  | 56.3 | 
CN(C)CCn1c([C@@H]2CCCN2c2ncnc3[nH]cc(C#N)c23)nn2ccc(Cl)c2c1=O [Compound 252] | 97.0 | 7 | 56.6 |  | 68.9 | 
O=c1c2c(Cl)ccn2nc([C@@H]2CCCN2c2ncnc3[nH]cnc23)n1CCN1CCOCC1 [Compound 253] | 92.8 | 52 | 45.1 |  | 69.0 | 553
N#Cc1c[nH]c2ncnc(N3CCC[C@H]3c3nn4ccc(Cl)c4c(=O)n3CCN3CCOCC3)c12 [Compound 255] | >100 | 4 | 72.6 | 304 | >100 | 73
N#Cc1c[nH]c2ncnc(N3CCC[C@H]3c3nn4ccc(Cl)c4c(=O)n3CC3CC3)c12 [Compound 257] | >100 | 2 | 82.4 | 80 | >100 | 18
N#Cc1c[nH]c2ncnc(N3CCC[C@H]3c3nn4ccc(Cl)c4c(=O)n3CC3CCCCC3)c12 [Compound 258] | 94.7 | 76 | 10.4 |  | 73.0 | 467
CC(C)Cn1c([C@@H]2CCN2c2ncnc3[nH]cc(C#N)c23)nn2ccc(Cl)c2c1=O [Compound 259] | 98.8 | 27 | 41.5 |  | 89.5 | 170
CC(C)Cn1c([C@@H]2CCN2c2nc(N)ncc2C#N)nn2ccc(Cl)c2c1=O [Compound 260] | 98.0 | 40 | 39.6 |  | 90.9 | 163
N#Cc1c[nH]c2ncnc(N3C[C@@H](O)C[C@H]3c3nn4ccc(Cl)c4c(=O)n3-c3cccc(F)c3)c12 [Compound 261] | >100 | 1 | >100 | 31 | >100 | 3
